The values below come from patent US9757455B2, “Oral therapeutic compound delivery system” (Johnson & Johnson Consumer Inc., priority 2005, dated 2017).

Data set [1] in a line: Dissolution, USP dissolution apparatus 2, 900 mL 0.0033 N hydrochloric acid, 30 rpm, 37° C. The class given is physicochemical. The note with it: basic and amphoteric drugs in formulations according to the invention (Table 32). The procedure:
(§1) Testing was conducted in a dissolution medium containing 900 mL 0.0033 N hydrochloric acid (HCl) at 37° C. which discriminates better between fast dissolving formulations than more acidic dissolution media where the effect of high acid concentration tends to mask formulation effects on dissolution. 900 mL of this medium contains the absolute amount of acid estimated to be present in the gastric contents in vivo, namely 3 millimoles.
(§2) Testing at was conducted at a stirring speed of 30 rpm and also at 0 rpm which provides more discrimination between formulations. To achieve maximum dissolution, the stirring speed was increased to 250 rpm for 10 minutes after 20 minutes for measurements at 30 rpm, and after 60 minutes for measurements at 0 rpm.
(§3) Unless otherwise stated, drug concentrations were measured using a Varian Cary 50 UV-Vis Spectrophotometer set at an appropriate wavelength using flow through cells for automatic continuous sampling. For each drug, the optimal wavelength was selected after running UV scans in the dissolution medium.
A suitable C18 column and guard column were used. Results were processed using Waters Empower software.

Another data set in a line: Solubility in water. The note with it: for solubility: water.
Data set [2] in a line: Dissolution, USP dissolution apparatus 2, 900 mL 0.0033 N hydrochloric acid, 0 rpm, 37° C. The class given is physicochemical. Particulars: for % dissolved in 900 mL 0.0033 N HCl: basic and amphoteric drugs in formulations according to the invention (Table 32), 0 rpm. The procedure:
as §1
Dissolution results without stirring may be of in vivo significance in conditions where there is gut stasis or reduced gastric activity.
as §2, §3

The mark [3] stands for this setting: 30 minutes, 30 rpm (increased to 250 rpm after 20 minutes).
Where [4] appears, read: dose (mg) of each drug as in Table 78.
Setting [5] is: pH modulating agent: Bicarb + acid, 300 sec (Table 33).
[6] abbreviates: pH modulating agent: Bicarb + acid, 15 min (Table 33).
[7] abbreviates: pH modulating agent: Bicarb + acid, 30 min (Table 33).
Where [8] appears, read: pH modulating agent: Bicarbonate, 300 sec (Table 33).
Where [9] appears, read: pH modulating agent: Bicarbonate, 15 min (Table 33).
The mark [10] stands for this setting: pH modulating agent: Bicarbonate, 30 min (Table 33).

SMILES strings stand for the structures. ≈ marks a conversion by molar mass, not a printed value. Structures can show the parent of a compound that is named as a salt. Where two headings read alike, the source gives them in different places. Marks after values point to notes of the source that are not given here.

As for `CN(C)CCc1c[nH]c2ccc(C[C@H]3COC(=O)N3)cc12` [Zolmitriptan], the “% dissolved in 900 mL 0.0033 N HCl” value in data set [1] (180 sec, 30 rpm) was determined as 73%; in data set [1] (300 sec, 30 rpm), 76%; in data set [1] (15 minutes, 30 rpm) it was 86%; in data set [1] (setting [3]) it was 98%; in data set [2] (180 sec), 66%; in data set [2] (300 sec) it was 77%. Besides, the “% dissolved in 900 mL 0.0033 N HCl” value in data set [2] (15 minutes) is on record as 88%; in data set [2] (30 minutes), 96%. Moreover, in “Solubility in water” (setting [4]), the “Volume (mL) of water to dissolve dose” value is reported as 2 mL.

As for `Cc1ccc(C)c(OCCCC(C)(C)C(=O)O)c1` [Gemfibrozil], in “Solubility in water”, the “Effect of ↑ pH on solubility” value is listed as “↑” and the solubility worked out at 29 µg/mL (≈ 116 µM). The “Volume of water (mL) to dissolve dose” value in “Solubility in water” (dose per tablet as in label) was 20,690 mL.

As for `C[C@]12C=CC(=O)C=C1CC[C@@H]1[C@@H]2[C@@H](O)C[C@@]2(C)[C@H]1CC[C@]2(O)C(=O)CO` [Prednisolone], the “Volume of water (mL) to dissolve dose” value in the data set “Solubility in water” (dose per tablet as in label, listed as Prednisolone 5 mg) turned out to be 23 mL; in the data set “Solubility in water” (dose per tablet as in label, listed as Prednisolone 25 mg), 114 mL.

Consider `Cc1nnc2n1-c1ccc(Cl)cc1C(c1ccccc1)=NC2` [Alprazolam], for which the “% dissolved in 900 mL 0.0033 N HCl” value came out at 61% in data set [1] (180 sec, 30 rpm); 67% in data set [1] (300 sec, 30 rpm); 77% in data set [1] (15 minutes, 30 rpm); 100% in data set [1] (setting [3]); 13% in data set [2] (180 sec); 20% in data set [2] (300 sec). The “% dissolved in 900 mL 0.0033 N HCl” value worked out at 45% in data set [2] (15 minutes) and 63% in data set [2] (30 minutes). Further, the “Volume (mL) of water to dissolve dose” value in “Solubility in water” (setting [4]) came out at 14 mL. Further, the “% drug dissolved in 900 mL 0.0033 N HCl at 0 rpm” value (“% drug dissolved” for short) was found to be 20% in data set [2] (setting [5]); 45% in data set [2] (setting [6]); 63% in data set [2] (setting [7]); 1% in data set [2] (setting [8]); 4% in data set [2] (setting [9]); 4% in data set [2] (setting [10]).

On to `CC(C)Cc1ccc(C(C)C(=O)O)cc1` (centres unmarked) [Ibuprofen], for which, in “Solubility in water”, the “Effect of ↑ pH on solubility” value was “↑” and the solubility is 40 µg/mL (≈ 194 µM).

With `Cc1ccc(-c2cc(C(F)(F)F)nn2-c2ccc(S(N)(=O)=O)cc2)cc1` [Celecoxib], in “Solubility in water”, the “Effect of ↑ pH on solubility” value was “⇄” and the solubility was found to be 3.46 µg/mL (≈ 9.07 µM).

Consider `CN(C)CCc1c[nH]c2ccc(Cn3cncn3)cc12` [Rizatriptan benzoate], for which the “% dissolved in 900 mL 0.0033 N HCl” value amounted to 96% in data set [1] (180 sec, 30 rpm); 96% in data set [1] (300 sec, 30 rpm); 96% in data set [1] (15 minutes, 30 rpm); 97% in data set [1] (setting [3]); 94% in data set [2] (180 sec); 100% in data set [2] (15 minutes). In addition, in data set [2] (30 minutes), the “% dissolved in 900 mL 0.0033 N HCl” value worked out at 100%. Further, the “Volume (mL) of water to dissolve dose” value in “Solubility in water” (setting [4]) is given as 0.3 mL. Also, the Solubility in water in “Solubility in water” (solubility of the base not salt) was 42* mg/mL.

Turning to `Cc1nccn1CC1CCc2c(c3ccccc3n2C)C1=O` (centres unmarked) [Ondansetron hydrochloride], the “% dissolved in 900 mL 0.0033 N HCl” value in data set [1] (180 sec, 30 rpm) is 88%; in data set [1] (300 sec, 30 rpm) it was 96%; in data set [1] (15 minutes, 30 rpm) it was 100%; in data set [1] (setting [3]), 100%; in data set [2] (180 sec), 50%; in data set [2] (300 sec), 65%. Moreover, the “% dissolved in 900 mL 0.0033 N HCl” value in data set [2] (15 minutes) is reported as 79%; in data set [2] (30 minutes) it was 85%. In the data set “Solubility in water”, this compound registered a Solubility in water of 2.42 mg/mL. Moreover, the “Volume (mL) of water to dissolve dose” value in the data set “Solubility in water” (setting [4]) was determined as 4 mL.

In the case of `O=C1Nc2ccc(Cl)cc2C(c2ccccc2Cl)=NC1O` (centres unmarked) [Lorazepam], the “% dissolved in 900 mL 0.0033 N HCl” value was determined as 77% in data set [1] (180 sec, 30 rpm); 88% in data set [1] (300 sec, 30 rpm); 96% in data set [1] (15 minutes, 30 rpm); 100% in data set [1] (setting [3]); 77% in data set [2] (180 sec); 85% in data set [2] (300 sec). In addition, the “% dissolved in 900 mL 0.0033 N HCl” value in data set [2] (15 minutes) came out at 95%; in data set [2] (30 minutes), 99%. For the same compound, the “% drug dissolved” value in data set [2] (setting [5]) amounted to 85%; in data set [2] (setting [6]), 95%; in data set [2] (setting [7]), 99%; in data set [2] (setting [8]) it was 6%; in data set [2] (setting [9]), 6%; in data set [2] (setting [10]), 11%.

In the case of `CN1C(=O)C(O)N=C(c2ccccc2)c2cc(Cl)ccc21` (centres unmarked) [Temazepam], in “Solubility in water”, the “Volume of water (mL) to dissolve dose” value turned out to be 83 mL.

For the compound `CN1CCC[C@@H]1Cc1c[nH]c2ccc(CCS(=O)(=O)c3ccccc3)cc12` [Eletriptan hydrochloride, Eletriptan hydrobromide], the “% dissolved in 900 mL 0.0033 N HCl” value in data set [1] (180 sec, 30 rpm) amounted to 94%; in data set [1] (300 sec, 30 rpm), 96%; in data set [1] (15 minutes, 30 rpm), 97%; in data set [1] (setting [3]) it was 99%; in data set [2] (180 sec), 88%; in data set [2] (300 sec), 95%. Also, the entries for the “% dissolved in 900 mL 0.0033 N HCl” value in data set [2] (15 minutes) and in data set [2] (30 minutes) were 98% and 100%, respectively. Further, in the data set “Solubility in water” (setting [4]), the “Volume (mL) of water to dissolve dose” value is recorded as 4 mL.

Regarding `Cc1ccc(-c2nc3ccc(C)cn3c2CC(=O)N(C)C)cc1` [Zolpidem tartrate], the “% dissolved in 900 mL 0.0033 N HCl” value in data set [1] (180 sec, 30 rpm) came out at 96%; in data set [1] (300 sec, 30 rpm) it was 96%; in data set [1] (15 minutes, 30 rpm) it was 97%; in data set [1] (setting [3]) it was 98%; in data set [2] (180 sec) it was 77%; in data set [2] (300 sec), 91%. The entries for the “% dissolved in 900 mL 0.0033 N HCl” value in data set [2] (15 minutes) and in data set [2] (30 minutes) were 94% and 96%, respectively. Also, in “Solubility in water” (setting [4]), the “Volume (mL) of water to dissolve dose” value came to 0.4 mL.

As for `CCN(CC)CCNC(=O)c1cc(Cl)c(N)cc1OC` [Metoclopramide hydrochloride], the “% dissolved in 900 mL 0.0033 N HCl” value stood at 94% in data set [1] (180 sec, 30 rpm); 95% in data set [1] (300 sec, 30 rpm); 97% in data set [1] (15 minutes, 30 rpm); 100% in data set [1] (setting [3]); 26% in data set [2] (180 sec); 69% in data set [2] (300 sec). For the same compound, the “% dissolved in 900 mL 0.0033 N HCl” value is given as 86% in data set [2] (15 minutes) and 91% in data set [2] (30 minutes). In addition, the “Volume (mL) of water to dissolve dose” value in “Solubility in water” (setting [4]) is given as 50 mL. Further, the “% drug dissolved” value is 69% in data set [2] (setting [5]); 86% in data set [2] (setting [6]); 91% in data set [2] (setting [7]); 5% in data set [2] (setting [8]); 28% in data set [2] (setting [9]); 46% in data set [2] (setting [10]).

On to `O=C(O)Cc1ccccc1Nc1c(Cl)cccc1Cl` [Diclofenac potassium], for which, in the data set “Solubility in water”, the “Effect of ↑ pH on solubility” value is listed as “↑” and the solubility worked out at 10000 µg/mL. The “Volume of water (mL) to dissolve dose” value in “Solubility in water” (dose per tablet as in label) worked out at 7 mL.

For the compound `CN(C)C(=O)C(CCN1CCC(O)(c2ccc(Cl)cc2)CC1)(c1ccccc1)c1ccccc1` [Loperamide hydrochloride], the “% dissolved in 900 mL 0.0033 N HCl” value in data set [1] (180 sec, 30 rpm) came out at 82%; in data set [1] (300 sec, 30 rpm), 84%; in data set [1] (15 minutes, 30 rpm), 89%; in data set [1] (setting [3]), 100%; in data set [2] (180 sec) it was 70%; in data set [2] (300 sec), 72%. For the same compound, the “% dissolved in 900 mL 0.0033 N HCl” value is recorded as 87% in data set [2] (15 minutes) and 95% in data set [2] (30 minutes). In addition, the “Volume (mL) of water to dissolve dose” value in “Solubility in water” worked out at 2 mL. The “% drug dissolved” value was 72% in data set [2] (setting [5]); 87% in data set [2] (setting [6]); 95% in data set [2] (setting [7]); 27% in data set [2] (setting [8]); 43% in data set [2] (setting [9]); 101% in data set [2] (setting [10]).

As to `C[C@@H]1C[C@H]2[C@@H]3CCC4=CC(=O)C=C[C@]4(C)[C@@]3(F)[C@@H](O)C[C@]2(C)[C@@]1(O)C(=O)CO` [Dexamethasone], the “Effect of ↑ pH on solubility” value in “Solubility in water” is listed as “⇄”.
